# Results from ChEMBL document CHEMBL3217594, “Structureactivity relationships of methyl-lysine reader antagonists” (Medchemcomm, 2012).
# Active and inactive are the calls of the source. No cut-off for these calls is given here.
# How the values were obtained:
# [1] = target: T1, Scm-like with four MBT domains protein 1 (Homo sapiens) (UniProt Q9UHJ3); experiment: Antagonist activity at SFMBT1 (unknown origin) assessed as inhibition of SFMBT1/biotinylated H3K9Me1 peptide interaction at 30 uM after 30 mins by AlphaScreen assay
# T1 sequence (whole entry): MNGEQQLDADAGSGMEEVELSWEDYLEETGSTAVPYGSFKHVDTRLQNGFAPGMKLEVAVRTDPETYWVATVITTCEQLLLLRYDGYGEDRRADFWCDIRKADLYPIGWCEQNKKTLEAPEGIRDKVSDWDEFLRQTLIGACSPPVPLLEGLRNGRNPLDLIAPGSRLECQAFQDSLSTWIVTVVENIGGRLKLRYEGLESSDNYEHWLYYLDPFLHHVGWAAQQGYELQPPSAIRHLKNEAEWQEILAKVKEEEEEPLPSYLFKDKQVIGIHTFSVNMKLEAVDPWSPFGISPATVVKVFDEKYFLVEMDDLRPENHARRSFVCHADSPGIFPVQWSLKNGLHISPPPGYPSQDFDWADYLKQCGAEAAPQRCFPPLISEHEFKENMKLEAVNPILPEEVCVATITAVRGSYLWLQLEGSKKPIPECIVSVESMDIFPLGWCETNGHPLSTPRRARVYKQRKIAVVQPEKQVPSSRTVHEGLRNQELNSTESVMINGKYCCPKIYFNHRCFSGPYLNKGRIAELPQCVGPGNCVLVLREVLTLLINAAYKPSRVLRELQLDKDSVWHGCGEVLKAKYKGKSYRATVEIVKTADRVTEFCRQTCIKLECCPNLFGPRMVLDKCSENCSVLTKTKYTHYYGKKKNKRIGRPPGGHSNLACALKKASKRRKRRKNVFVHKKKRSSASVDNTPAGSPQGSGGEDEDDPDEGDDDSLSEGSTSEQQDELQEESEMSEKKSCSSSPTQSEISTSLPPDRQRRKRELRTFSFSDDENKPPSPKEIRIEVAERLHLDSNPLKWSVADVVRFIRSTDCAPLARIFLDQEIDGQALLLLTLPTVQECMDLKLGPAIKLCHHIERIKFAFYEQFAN
# [2] = target: T2, Lethal(3)malignant brain tumor-like protein 4 (Homo sapiens) (UniProt Q8NA19); experiment: Antagonist activity at L3MBTL4 (unknown origin) assessed as inhibition of L3MBTL4/biotinylated H2AK36Me1 peptide interaction at 30 uM after 30 mins by AlphaScreen assay
# T2 sequence (whole entry): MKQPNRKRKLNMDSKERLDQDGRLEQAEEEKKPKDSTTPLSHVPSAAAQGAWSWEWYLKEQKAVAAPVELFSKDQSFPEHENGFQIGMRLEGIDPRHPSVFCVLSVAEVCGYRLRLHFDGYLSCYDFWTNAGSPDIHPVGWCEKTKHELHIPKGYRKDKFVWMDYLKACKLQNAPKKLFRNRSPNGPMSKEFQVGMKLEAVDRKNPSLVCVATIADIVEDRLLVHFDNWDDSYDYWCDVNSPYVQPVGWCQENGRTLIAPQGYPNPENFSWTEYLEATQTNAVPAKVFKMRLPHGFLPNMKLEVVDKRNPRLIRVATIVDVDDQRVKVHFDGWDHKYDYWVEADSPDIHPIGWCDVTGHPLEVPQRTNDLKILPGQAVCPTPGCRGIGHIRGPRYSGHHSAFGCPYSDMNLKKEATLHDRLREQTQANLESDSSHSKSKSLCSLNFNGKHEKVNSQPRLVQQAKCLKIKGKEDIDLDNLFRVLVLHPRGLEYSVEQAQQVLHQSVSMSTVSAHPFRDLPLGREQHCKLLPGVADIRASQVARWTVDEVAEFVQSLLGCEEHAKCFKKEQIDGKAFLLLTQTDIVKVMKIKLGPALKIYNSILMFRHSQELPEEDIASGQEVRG
# [3] = target: T3, Lethal(3)malignant brain tumor-like protein 3 (Homo sapiens, UniProt Q96JM7); experiment: Antagonist activity at His-tagged L3MBTL3 (unknown origin) assessed as inhibition of L3MBTL3/biotinylated H4K20Me2 peptide interaction after 30 mins by AlphaScreen assay
# T3 sequence (Q96JM7 whole entry): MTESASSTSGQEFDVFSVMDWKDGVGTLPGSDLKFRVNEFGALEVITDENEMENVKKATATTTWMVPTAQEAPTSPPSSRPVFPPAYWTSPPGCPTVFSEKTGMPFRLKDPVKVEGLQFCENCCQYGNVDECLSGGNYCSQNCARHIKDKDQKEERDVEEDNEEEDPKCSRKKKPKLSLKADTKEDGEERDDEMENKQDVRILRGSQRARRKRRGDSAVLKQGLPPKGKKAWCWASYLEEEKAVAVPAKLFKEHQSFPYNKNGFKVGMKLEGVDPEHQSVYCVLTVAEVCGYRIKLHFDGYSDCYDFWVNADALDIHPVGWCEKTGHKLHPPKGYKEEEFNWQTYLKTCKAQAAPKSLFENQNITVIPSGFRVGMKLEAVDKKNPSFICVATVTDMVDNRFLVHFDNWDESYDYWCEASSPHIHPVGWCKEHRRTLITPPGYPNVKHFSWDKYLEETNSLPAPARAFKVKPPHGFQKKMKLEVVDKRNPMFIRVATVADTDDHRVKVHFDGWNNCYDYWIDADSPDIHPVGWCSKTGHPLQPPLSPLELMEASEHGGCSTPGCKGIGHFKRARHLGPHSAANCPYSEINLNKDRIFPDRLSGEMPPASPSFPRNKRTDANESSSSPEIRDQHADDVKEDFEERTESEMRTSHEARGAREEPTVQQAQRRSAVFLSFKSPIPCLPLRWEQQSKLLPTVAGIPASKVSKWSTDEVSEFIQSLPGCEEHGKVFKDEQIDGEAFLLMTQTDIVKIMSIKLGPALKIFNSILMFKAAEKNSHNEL
inhibition [1],Compound,inhibition [2],IC50 [3] [µM]
inactive,O=C(c1cccc(Br)c1)N1CCC(N2CCCCC2)CC1,inactive,> 30
inactive,O=C(c1cccc(Br)c1)N1CCC(C2CCCN2)CC1 (stereo not drawn),inactive,
inactive,O=C(c1cccc(Br)c1)N1CCC(N2CCC2)CC1,4%,23.8
inactive,Brc1cccc(CN2CCC(N3CCCC3)CC2)c1,10%,13.3
inactive,CC1CCCN1C1CCN(C(=O)c2cccc(Br)c2)CC1 (stereo not drawn),inactive,> 30
inactive,O=C(c1cccc(Br)c1)N1CCC(N2CCCC2)C1 (stereo not drawn),inactive,> 30
12%,O=C(c1cccc(Br)c1)N1CCC(N2CCCC2)CC1,,3.2
inactive,O=S(=O)(c1cccc(Br)c1)N1CCC(N2CCCC2)CC1,6%,3.7
inactive,CN(C)C1CCN(C(=O)c2cccc(Br)c2)CC1,inactive,> 30
inactive,CN1CCCC1C1CCN(C(=O)c2cccc(Br)c2)CC1 (stereo not drawn),inactive,21
inactive,C[N+]1(C2CCN(C(=O)c3cccc(Br)c3)CC2)CCCC1,inactive,> 30
inactive,O=C(O)c1cccc(C(=O)N2CCC(N3CCCC3)CC2)c1,26%,6.9
inactive,O=C(c1cccc(Br)c1)N1CCN(C2CCCC2)CC1,inactive,> 30
inactive,CC(c1cccc(Br)c1)N1CCC(N2CCCC2)CC1 (racemic),13%,16
inactive,CNC1CCN(C(=O)c2cccc(Br)c2)CC1,inactive,> 30
